Source: US20260125368A1, “SALT OF GLP-1R AGONIST, PREPARATION METHOD THEREFOR AND USE THEREOF” (MINDRANK AI LTD., priority 2022, published 2026)

Assay: Hygroscopic behavior test by dynamic vapor sorption (DVS)
Format: physicochemical
Conditions: 25° C.; for Did the crystal form change before and after the test?: 0-90% RH; for Hygroscopicity / 80% RH sample weight change (%): 80% RH; for 80% RH sample weight change (%): adsorption 0-90% RH
Text: The experimental method for characterizing an acid salt or a base salt of compound I by dynamic vapor sorption (DVS) was as follows: A small amount of a powder of the acid salt or the base salt of compound I was taken and placed into a precise sample tray that matches the instrument. After the sample was loaded, the sample tray was sent into the instrument for analysis. In the present disclosure, the instrument model used in the dynamic vapor sorption analysis was Intrinsic PLUS; the experimental parameter was set as follows: a constant temperature of 25° C. was set; the mass percent change rate per unit time (dm/dt)=0.02%/min was used as a criterion for determining that a balance is achieved; the program humidity change cycle was set as follows: the initial relative humidity was 0%, and the endpoint relative humidity was 90%.
The hygroscopic behavior of a compound affects the production, storage, stability, and quality of the drug.

Did the crystal form change before and after the test? | Hygroscopicity | 80% RH sample weight change (%) | Structure (SMILES)
no solid form change was observed and No | slightly hygroscopic | 0.90% | O=C(O)c1ccc2nc(CN3CCC(Oc4cccc(COc5ccc(Cl)cc5F)n4)CC3)n(C[C@@H]3CCO3)c2c1 [Free form of compound I-1, (S)-2-((4-((6-((4-chloro-2-fluorophenoxy)methyl)pyridin-2-yl)oxy)piperidin-1-yl)methyl)-1-(oxetan-2-ylmethyl)-1H-benzo[d]imidazole-6-carboxylic acid]
no solid form change was observed and No | slightly hygroscopic | 0.71% | N#Cc1ccc(OCc2cccc(OC3CCN(Cc4nc5ccc(C(=O)O)cc5n4C[C@@H]4CCO4)CC3)n2)c(F)c1 [Free form of compound I-2, (S)-2-((4-((6-((4-cyano-2-fluorophenoxy)methyl)pyridin-2-yl)oxy)piperidin-1-yl)methyl)-1-(oxetan-2-ylmethyl)-1H-benzo[d]imidazole-6-carboxylic acid]
